Assay [1] deals with Normal Mice (Mus musculus). As to the kind of experiment: Immunostimulant (humorral) activity: haemagglutination (HA) antibody titre after immunisation with rabbit RBC's. Type of assay: in vivo. The settings on record: for Haemagglutination titre: mice fed 50-100 mg/Kg body weight, rabbit RBC antigen day 7 and 14, highest serum dilution showing agglutination. The method, then: A. For Humorral Immune Response • a) Treating the animals with the combination of the three coumarinolignoids at the dose in the range of 50-200 mg/Kg body weight for a period of 1-28 days. • b) Administering the animals with an antigen in the range of 0.01 to 0.3 ml of 5×10^9 RBC's in combination with a pharmaceutically acceptable diluent in a range 20-80% of the antigen used on day 7 for the initiation of antibody production. • c) Administering the same dosage regimen of the antigen and diluent as a booster dose after a period of 3-14 days from the day of primary immunization. • d) Withdrawing the blood using a capillary from the orbital plexus of the animal after a period of 18-25 days from the day of primary immunization. • e) Assessing the antibody production in the serum separated and isolated on 28th day through haemagglutination in a 96 well ‘U’ bottom microtitre plate at a titre ranging from 32-2048.
Normal healthy outbred mice, maintained under standard conditions (22±3° C., 12:12 hr light:dark cycle, pellet diet and soaked Bengal gram), 5 animals in each group were taken for the experiment. The animals were fed with the test compound at the dose rate of 50-100 mg/Kg body weight for a period of 1-28 days. Freshly collected and washed rabbit RBC's was used as an antigen which was used to immunize the animal on day 7 followed by the booster dose on day 14th. Blood was collected from the orbital plexus after 21 days and assessed for haemaggluting (HA) titre. The haemagglutination was carried upon using a serial two-fold dilution of the serum in 96 well ‘U’ bottom microtitre plates. The highest dilution showing visible agglutination was taken as the antibody titre.

For assay [2], the system named is Hepatocytes (primary cultured liver cells). As to the kind of experiment: SGOT quantification of cell culture supernatant of liver cells damaged with d-galactosamine. The settings on record: compounds @ 1 μg/ml, 48-72 hrs incubation. It is filed as cell-based. As for the experimental part: Hepatocytes were isolated and cultured into tissue culture plates and damaged with d-galactosamine @ 1 μg/ml and the cells were treated with the compounds under question. After 48-72 hrs of incubation the cell culture supernatant was taken for the estimation of SGOT levels which is indicative of the damage of the primary cultured liver cells.

The source of these data is patent US20070258989A1, “Immunomodulatory pharmaceutical composition and a process for preparation thereof” (Council of Scientific and Industrial Research, priority 2005, published 2007).

For `O=P1(N(CCCl)CCCl)NCCCO1` (centres unmarked) [Ledoxan, Cyclophosphamide], the “humorral immunity HA titre” value in assay [1] (256 in normal control) turned out to be 0. The Haemagglutination titre in assay [1] (animal 1), in assay [1] (animal 2), in assay [1] (animal 3), in assay [1] (animal 4), in assay [1] (animal 5) and in assay [1] (animal 7) was 0 each time.

Turning to `N[C@H]1C(O)O[C@H](CO)[C@H](O)[C@@H]1O` (stereo partly drawn) [d-galactosamine], the “SGOT levels of the cell culture supernatant” value in assay [2] (d-Galactosamine concentration 0.01) is 286; in assay [2] (d-Galactosamine concentration 0.1), 325; in assay [2] (d-Galactosamine concentration 1), 420; in assay [2] (d-Galactosamine concentration 10) it was 455.
